Test system: 898857-211-R-J1-PDC complex spheroids, growth % test/control
Experiment: Anticancer human tumor 898857-211-R-J1-PDC patient-derived melanoma cell line growth inhibition [RAS]
Details: for IC50: curve of first compound; for viability, T/C: stronger effect = lower value
From the text: RAS pathway inhibitors in Combinations in Complex Spheroids
A high-throughput screen of multi-cell type tumor spheroids was designed to identify active combinations of RAS pathway inhibitors and targeted small molecules. Complex spheroids include a stromal component modeled by human endothelial cells (HUVEC) and fibroblasts modeled by human mesenchymal stem cells (MSCs). The concentration ranges selected for each drug and investigational agent were based upon clinically achievable concentrations if the clinical Cmax of the agent was known.
Compounds. The drugs and investigational agents: abemaciclib (NSC768073), cobimetinib (NSC768068), divarasib (GDC6063, NSC841802), docetaxel (NSC628503), GDC-1971 (RLY-1971, NSC841576), gemcitabine (NSC613327), inavolisib (NSC800729), ipatasertib (NSC767898), KB-0742 (NSC834161), MRTX-1133 (NSC836407), osimertinib (NSC779217), RMC-4630 (NSC839698), RMC-6236 (NSC851965), RMC-6291 (NSC852671), Ro-3306 (NSC812927), sapanisertib (NSC764658), SN-38 (NSC673596), staurosporine (NSC755774), SY5609 (NSC837396), and tovorafenib (DAY101, NSC766906), were obtained from the National Cancer Institute (NCI) Developmental Therapeutics Program Chemical Repository. The FDA-approved anticancer drug set is available from the NCI Developmental Therapeutics Program. […] The stock solutions were prepared in dimethyl sulfoxide (DMSO, Sigma-Aldrich, St. Louis, MO, cat. D2650) at 800-fold the tested concentration and stored at -70 degrees C prior to their use. All drugs and investigational agents were tested over a range starting from a high concentration at or near the clinical Cmax and decreasing in half-log increments. If the clinical Cmax for an agent had not been determined, the highest concentration tested was 10 microM.
Cell Culture. All cells were maintained in an incubator at 37 degrees C and 5% CO2 with 95% humidity. The PDC lines were cultured according to standard operating procedures established by the NCI PDMR. All PDCs were thawed and cultured in Matrigel-coated flasks prepared with a working solution of 1X Ham's F-12 nutrient mix, without supplementation (Invitrogen, Waltham, MA, cat. 11765054), 100 U/mL penicillin-streptomycin (Invitrogen, cat. 15140122), and 2.5% Matrigel (Corning Inc., Corning, NY, cat. 354248) for the first three passages. The 362531-283-R-J2-PDC and 782815-120-R-J1-PDC lines were cultured in 6C/Colon 1B media, which includes advanced DMEM/F-12 (Thermo Fisher Scientific, cat. 12634028), 10 mM HEPES (Thermo Fisher Scientific, cat. 15630080), 1X GlutaMAX supplement (Thermo Fisher Scientific, cat. 35050061), 0.1 mg/mL primocin (InvivoGen, San Diego, CA, cat. ant-pm-2), 10% defined fetal bovine serum, heat inactivated (HyClone Laboratories Inc., Logan, UT, cat. SH30070.03HI), 50% L-WRN conditioned media (ATCC, cat. CRL-3276), 1.25 mM N-Acetyl-L-cysteine (Sigma-Aldrich, cat. A9165), 10 mM nicotinamide (Sigma-Aldrich, cat. N0636), 1X B-27 supplement (Thermo Fisher Scientific, cat. 17504044), 1X N-2 supplement (Thermo Fisher Scientific, cat. 17502048), 50 ng/mL human EGF (Thermo Fisher Scientific, cat. PHG0311), and 10 microM Y-27632 dihydrochloride (Tocris Bioscience, cat. 1254). The K12877-001-R-J1-PDC line was cultured in 6I media, which includes all 6C/Colon 1B media plus 10 ng/mL human FGF-10 (PeproTech, cat. 100-26), 1 ng/mL human FGF-2 (PeproTech, cat. 100-18B), 1 µM prostaglandin E2 (Tocris Bioscience, cat. 2296), […] hydrocortisone (Sigma-Aldrich, cat. H4001), and […] bovine insulin (Sigma-Aldrich, cat. I6634). The K86415-001-R-J1-PDC line was cultured in 6D media, which includes all 6C/Colon 1B media components minus the L-WRN conditioned media. The 485176-168-R4-J1-PDC was cultured in PANC media, which includes all 6C/Colon 1B media plus 100 ng/mL human FGF-10 (PeproTech, cat. 100-26), 500 nM SB-431542 (Selleckchem, cat. S1067), and 10 nM gastrin (Tocris Bioscience, cat. 3006). […]

[1] = second compound 0.0316 µM, first compound 0.0316 µM
[2] = second compound 0.0316 µM, first compound 0.1 µM
[3] = second compound 0.0316 µM, first compound 0.316 µM
[4] = second compound 0.0316 µM, first compound 1 µM
[5] = second compound 0.0316 µM, first compound 3.16 µM
[6] = second compound 0.0316 µM, first compound 10 µM
[7] = second compound 0.1 µM, first compound 0.0316 µM
[8] = second compound 0.1 µM, first compound 0.1 µM
[9] = second compound 0.1 µM, first compound 0.316 µM
[10] = second compound 0.1 µM, first compound 1 µM
[11] = second compound 0.1 µM, first compound 3.16 µM
[12] = second compound 0.1 µM, first compound 10 µM
[13] = second compound 0.316 µM, first compound 0.0316 µM
[14] = second compound 0.316 µM, first compound 0.1 µM
[15] = second compound 0.316 µM, first compound 0.316 µM
[16] = second compound 0.316 µM, first compound 1 µM
[17] = second compound 0.316 µM, first compound 3.16 µM
[18] = second compound 0.316 µM, first compound 10 µM
[19] = second compound 1 µM, first compound 0.0316 µM
[20] = second compound 1 µM, first compound 0.1 µM
[21] = second compound 1 µM, first compound 0.316 µM
[22] = second compound 1 µM, first compound 1 µM
[23] = second compound 1 µM, first compound 3.16 µM
[24] = second compound 1 µM, first compound 10 µM
[25] = second compound 3.16 µM, first compound 0.0316 µM
[26] = second compound 3.16 µM, first compound 0.1 µM
[27] = second compound 3.16 µM, first compound 0.316 µM
[28] = second compound 3.16 µM, first compound 1 µM
[29] = second compound 3.16 µM, first compound 3.16 µM
[30] = second compound 3.16 µM, first compound 10 µM
[31] = second compound 10 µM, first compound 0.0316 µM
[32] = second compound 10 µM, first compound 0.1 µM
[33] = second compound 10 µM, first compound 0.316 µM
[34] = second compound 10 µM, first compound 1 µM
[35] = second compound 10 µM, first compound 3.16 µM
[36] = second compound 10 µM, first compound 10 µM
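Also: spheroids exposed to compound for seven days before readout.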
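For viability, T/C in this document: 100% = DMSO vehicle control wells.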

Q: Which IC50 (second compound 0.0316 µM) does the source give for `CC(C)NCC(C(=O)N1CCN(c2ncnc3c2C(C)CC3O)CC1)c1ccc(Cl)cc1` (centres undefined) + C#Cc1c(F)ccc2cc(O)cc(-c3ncc4c(N5CC6CCC(C5)N6)nc(OCC56CCCN5CC(F)C6)nc4c3F)c12 here?
A: > 10 µM

Q: And the IC50 (second compound 0.1 µM)?
A: > 10 µM

Q: And the IC50 (second compound 0.316 µM)?
A: > 10 µM

Q: What about the IC50 (second compound 1 µM) of the same compound?
A: > 10 µM

Q: And the IC50 (second compound 3.16 µM)?
A: > 10 µM

Q: What about the IC50 (second compound 10 µM) of the same compound?
A: 0.132 µM

Q: And the viability, T/C [1]?
A: 100%

Q: What about the viability, T/C [2] of the same compound?
A: 89.4%

Q: What about the viability, T/C [3] of the same compound?
A: 103%

Q: And the viability, T/C [4]?
A: 80.8%

Q: And the viability, T/C [5]?
A: 73.6%

Q: And the viability, T/C [6]?
A: 67.6%

Q: And the viability, T/C [7]?
A: 116%

Q: And the viability, T/C [8]?
A: 104%

Q: What about the viability, T/C [9] of the same compound?
A: 98.5%

Q: What about the viability, T/C [10] of the same compound?
A: 88.2%

Q: And the viability, T/C [11]?
A: 85.2%

Q: And the viability, T/C [12]?
A: 61.4%

Q: And the viability, T/C [13]?
A: 101%

Q: And the viability, T/C [14]?
A: 103%

Q: And the viability, T/C [15]?
A: 104%

Q: And the viability, T/C [16]?
A: 83.4%

Q: What about the viability, T/C [17] of the same compound?
A: 70.8%

Q: And the viability, T/C [18]?
A: 55.2%

Q: What about the viability, T/C [19] of the same compound?
A: 99.9%

Q: What about the viability, T/C [20] of the same compound?
A: 95.8%

Q: And the viability, T/C [21]?
A: 104%

Q: What about the viability, T/C [22] of the same compound?
A: 92%

Q: And the viability, T/C [23]?
A: 74.7%

Q: What about the viability, T/C [24] of the same compound?
A: 61%

Q: What about the viability, T/C [25] of the same compound?
A: 102%

Q: And the viability, T/C [26]?
A: 95.9%

Q: And the viability, T/C [27]?
A: 109%

Q: What about the viability, T/C [28] of the same compound?
A: 92.7%

Q: And the viability, T/C [29]?
A: 78.1%

Q: What about the viability, T/C [30] of the same compound?
A: 52%

Q: And the viability, T/C [31]?
A: 54.3%

Q: What about the viability, T/C [32] of the same compound?
A: 59.4%

Q: What about the viability, T/C [33] of the same compound?
A: 38.5%

Q: And the viability, T/C [34]?
A: 33.8%

Q: What about the viability, T/C [35] of the same compound?
A: 27.5%

Q: And the viability, T/C [36]?
A: 8.24%

Q: For `CC(Nc1ccc2c(c1)OCCn1cc(N3C(=O)OCC3C(F)F)nc1-2)C(N)=O` (centres undefined) + C#Cc1c(F)ccc2cc(O)cc(-c3ncc4c(N5CC6CCC(C5)N6)nc(OCC56CCCN5CC(F)C6)nc4c3F)c12, which IC50 (second compound 0.0316 µM) is on record?
A: > 10 µM

Q: What about the IC50 (second compound 0.1 µM) of the same compound?
A: > 10 µM

Q: And the IC50 (second compound 0.316 µM)?
A: > 10 µM

Q: What about the IC50 (second compound 1 µM) of the same compound?
A: > 10 µM

Q: And the IC50 (second compound 3.16 µM)?
A: > 10 µM

Q: And the IC50 (second compound 10 µM)?
A: 0.0897 µM

Q: What about the viability, T/C [1] of the same compound?
A: 96.9%

Q: What about the viability, T/C [2] of the same compound?
A: 98.4%

Q: And the viability, T/C [3]?
A: 98.3%

Q: What about the viability, T/C [4] of the same compound?
A: 87.7%

Q: What about the viability, T/C [5] of the same compound?
A: 97.8%

Q: And the viability, T/C [6]?
A: 69.4%

Q: And the viability, T/C [7]?
A: 99.9%

Q: And the viability, T/C [8]?
A: 90%

Q: And the viability, T/C [9]?
A: 99.2%

Q: And the viability, T/C [10]?
A: 98.4%

Q: And the viability, T/C [11]?
A: 91.6%

Q: And the viability, T/C [12]?
A: 69.9%

Q: And the viability, T/C [13]?
A: 106%

Q: And the viability, T/C [14]?
A: 101%

Q: What about the viability, T/C [15] of the same compound?
A: 92.5%

Q: And the viability, T/C [16]?
A: 94.2%

Q: What about the viability, T/C [17] of the same compound?
A: 87.3%

Q: What about the viability, T/C [18] of the same compound?
A: 71.3%

Q: And the viability, T/C [19]?
A: 108%

Q: What about the viability, T/C [20] of the same compound?
A: 99.8%

Q: What about the viability, T/C [21] of the same compound?
A: 104%

Q: What about the viability, T/C [22] of the same compound?
A: 94.7%

Q: What about the viability, T/C [23] of the same compound?
A: 83.4%

Q: And the viability, T/C [24]?
A: 65.2%

Q: What about the viability, T/C [25] of the same compound?
A: 98.1%

Q: What about the viability, T/C [26] of the same compound?
A: 89.2%

Q: And the viability, T/C [27]?
A: 94.3%

Q: And the viability, T/C [28]?
A: 96.3%

Q: What about the viability, T/C [29] of the same compound?
A: 82.8%

Q: What about the viability, T/C [30] of the same compound?
A: 72.4%

Q: And the viability, T/C [31]?
A: 59.6%

Q: And the viability, T/C [32]?
A: 39.3%

Q: And the viability, T/C [33]?
A: 47.1%

Q: What about the viability, T/C [34] of the same compound?
A: 40.1%

Q: What about the viability, T/C [35] of the same compound?
A: 32%

Q: And the viability, T/C [36]?
A: 20.5%

From PubChem BioAssay AID2060882 (Molecular Pharmacology Branch, DTP, NCI, 2025)
